{
  "source": "paper PMC9719519",
  "about": "“Non-classical ferroptosis inhibition by a small molecule targeting PHB2” (Nature Communications, 2022)",
  "experiment_in_all_cases": "biochemical",
  "design_in_all_cases": "Eurofins recombinant human kinase profiling, remaining kinase activity as % of control, 10 uM ATP",
  "conditions_in_all_cases": "ATP 10 uM; read-out: %Ctrl@10 μM",
  "key": {"[1]": {"molecular_target": "FGFR4(h) (Homo sapiens, UniProt P22455)", "method_in_brief": "(§1)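 Activity measured in a commercial panel of 401 recombinant human protein kinases run as a kinase profiling service.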"}, "[2]": {"molecular_target": "RIPK2(h) (Homo sapiens, UniProt O43353)", "method_in_brief": "as §1"}, "[3]": {"molecular_target": "T1, ZAK(h) (Homo sapiens, UniProt Q9NYL2)", "T1 construct": "gene MAP3K20", "method_in_brief": "as §1"}, "[4]": {"molecular_target": "T2, AMPKα2(h) (Homo sapiens, UniProt P54646)", "T2 construct": "gene PRKAA2", "T2 sequence (P54646 whole entry)": "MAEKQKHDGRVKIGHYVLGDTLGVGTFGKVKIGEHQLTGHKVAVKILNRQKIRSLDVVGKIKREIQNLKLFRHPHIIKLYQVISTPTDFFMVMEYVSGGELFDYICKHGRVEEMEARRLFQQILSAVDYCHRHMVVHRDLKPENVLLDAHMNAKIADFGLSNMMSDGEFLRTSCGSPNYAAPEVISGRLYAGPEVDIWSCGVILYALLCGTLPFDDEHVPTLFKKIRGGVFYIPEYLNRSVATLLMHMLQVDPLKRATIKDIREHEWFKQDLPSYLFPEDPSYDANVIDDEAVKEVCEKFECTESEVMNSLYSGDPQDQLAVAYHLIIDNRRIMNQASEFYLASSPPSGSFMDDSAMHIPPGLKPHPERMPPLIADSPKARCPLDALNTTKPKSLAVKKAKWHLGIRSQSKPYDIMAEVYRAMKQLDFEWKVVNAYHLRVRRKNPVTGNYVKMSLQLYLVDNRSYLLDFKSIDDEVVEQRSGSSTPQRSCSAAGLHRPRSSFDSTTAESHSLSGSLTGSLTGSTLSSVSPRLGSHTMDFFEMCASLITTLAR", "T2 sequence (P54619 whole entry partner)": "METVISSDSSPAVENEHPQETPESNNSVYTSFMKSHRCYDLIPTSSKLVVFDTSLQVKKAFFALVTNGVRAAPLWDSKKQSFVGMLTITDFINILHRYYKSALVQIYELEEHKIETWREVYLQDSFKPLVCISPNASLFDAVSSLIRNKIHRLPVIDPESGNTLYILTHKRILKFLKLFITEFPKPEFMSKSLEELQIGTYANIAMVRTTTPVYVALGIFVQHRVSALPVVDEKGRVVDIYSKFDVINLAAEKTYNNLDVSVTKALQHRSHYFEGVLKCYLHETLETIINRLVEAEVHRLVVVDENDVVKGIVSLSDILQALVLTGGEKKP", "T2 sequence (Q9Y478 whole entry partner)": "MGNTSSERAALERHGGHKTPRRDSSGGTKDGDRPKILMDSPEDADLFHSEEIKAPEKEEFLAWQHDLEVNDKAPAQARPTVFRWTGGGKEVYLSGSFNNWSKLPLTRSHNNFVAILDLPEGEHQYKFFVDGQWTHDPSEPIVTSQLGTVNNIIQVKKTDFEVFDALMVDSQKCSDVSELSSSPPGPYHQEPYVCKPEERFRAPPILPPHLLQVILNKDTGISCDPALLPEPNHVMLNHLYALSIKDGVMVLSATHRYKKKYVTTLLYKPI", "method_in_brief": "as §1"}, "[5]": {"molecular_target": "T3, MEKK2(h) (Homo sapiens, UniProt Q9Y2U5)", "T3 construct": "gene MAP3K2", "method_in_brief": "as §1"}, "[6]": {"molecular_target": "Met(h) (Homo sapiens, UniProt P08581)", "method_in_brief": "as §1"}, "[7]": {"molecular_target": "T4, HPK1(h) (Homo sapiens, UniProt Q92918)", "T4 construct": "gene MAP4K1", "T4 sequence (Q92918 whole entry)": "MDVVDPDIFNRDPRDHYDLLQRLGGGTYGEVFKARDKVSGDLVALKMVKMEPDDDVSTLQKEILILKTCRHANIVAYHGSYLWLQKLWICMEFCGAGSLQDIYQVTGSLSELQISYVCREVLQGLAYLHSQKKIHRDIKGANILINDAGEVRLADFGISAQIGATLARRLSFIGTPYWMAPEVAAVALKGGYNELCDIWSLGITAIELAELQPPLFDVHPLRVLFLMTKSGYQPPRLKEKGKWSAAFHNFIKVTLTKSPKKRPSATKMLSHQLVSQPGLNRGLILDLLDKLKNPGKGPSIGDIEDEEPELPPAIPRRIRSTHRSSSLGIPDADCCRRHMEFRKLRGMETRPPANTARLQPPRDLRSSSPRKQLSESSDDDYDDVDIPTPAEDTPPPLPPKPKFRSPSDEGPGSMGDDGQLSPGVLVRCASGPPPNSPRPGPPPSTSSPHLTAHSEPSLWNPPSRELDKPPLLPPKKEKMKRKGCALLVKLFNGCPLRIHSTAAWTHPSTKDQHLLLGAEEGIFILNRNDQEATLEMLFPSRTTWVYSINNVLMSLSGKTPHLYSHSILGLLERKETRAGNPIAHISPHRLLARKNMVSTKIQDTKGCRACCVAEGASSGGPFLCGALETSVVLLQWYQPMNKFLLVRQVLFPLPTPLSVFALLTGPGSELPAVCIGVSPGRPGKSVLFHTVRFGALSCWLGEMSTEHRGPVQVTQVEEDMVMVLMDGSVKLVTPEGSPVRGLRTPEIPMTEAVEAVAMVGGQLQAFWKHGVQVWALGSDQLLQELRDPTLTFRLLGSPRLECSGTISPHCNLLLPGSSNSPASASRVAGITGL", "method_in_brief": "as §1"}, "[8]": {"molecular_target": "NEK3(h) (Homo sapiens, UniProt P51956)", "sequence (P51956 whole entry)": "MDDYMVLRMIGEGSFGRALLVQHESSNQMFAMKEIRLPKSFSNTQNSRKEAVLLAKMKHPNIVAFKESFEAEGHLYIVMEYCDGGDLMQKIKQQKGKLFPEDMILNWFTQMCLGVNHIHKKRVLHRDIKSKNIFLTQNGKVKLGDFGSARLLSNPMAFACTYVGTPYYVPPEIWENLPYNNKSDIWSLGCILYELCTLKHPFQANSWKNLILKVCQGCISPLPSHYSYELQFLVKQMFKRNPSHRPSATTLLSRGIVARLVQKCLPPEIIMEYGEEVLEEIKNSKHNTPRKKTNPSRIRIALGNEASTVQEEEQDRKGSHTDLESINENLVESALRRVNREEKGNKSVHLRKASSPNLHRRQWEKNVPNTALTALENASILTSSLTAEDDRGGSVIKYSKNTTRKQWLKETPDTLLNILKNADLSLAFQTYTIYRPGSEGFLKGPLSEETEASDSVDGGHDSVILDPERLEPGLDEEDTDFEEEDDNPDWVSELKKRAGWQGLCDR", "method_in_brief": "as §1"}, "[9]": {"molecular_target": "T5, ALK1(h) (Homo sapiens, UniProt P37023)", "T5 construct": "gene ACVRL1", "T5 sequence (P37023 whole entry)": "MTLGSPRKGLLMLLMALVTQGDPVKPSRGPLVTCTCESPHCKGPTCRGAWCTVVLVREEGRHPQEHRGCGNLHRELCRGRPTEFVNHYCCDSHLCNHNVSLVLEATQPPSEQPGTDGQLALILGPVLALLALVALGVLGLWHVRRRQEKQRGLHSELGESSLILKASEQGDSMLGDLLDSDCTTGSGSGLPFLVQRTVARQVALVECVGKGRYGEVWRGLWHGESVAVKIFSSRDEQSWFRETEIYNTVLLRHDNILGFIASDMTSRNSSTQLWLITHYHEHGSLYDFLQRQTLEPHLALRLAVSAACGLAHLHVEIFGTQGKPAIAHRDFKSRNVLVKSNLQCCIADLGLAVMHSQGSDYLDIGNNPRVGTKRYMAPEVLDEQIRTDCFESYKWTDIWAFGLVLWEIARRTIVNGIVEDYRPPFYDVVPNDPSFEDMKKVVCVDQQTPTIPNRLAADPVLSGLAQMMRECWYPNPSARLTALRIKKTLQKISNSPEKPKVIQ", "method_in_brief": "as §1"}, "[10]": {"molecular_target": "T6, MAPK2(h) (Homo sapiens, UniProt P28482)", "T6 construct": "gene MAPK1", "method_in_brief": "as §1"}, "[11]": {"molecular_target": "SRMS(h) (Homo sapiens, UniProt Q9H3Y6)", "sequence (Q9H3Y6 whole entry)": "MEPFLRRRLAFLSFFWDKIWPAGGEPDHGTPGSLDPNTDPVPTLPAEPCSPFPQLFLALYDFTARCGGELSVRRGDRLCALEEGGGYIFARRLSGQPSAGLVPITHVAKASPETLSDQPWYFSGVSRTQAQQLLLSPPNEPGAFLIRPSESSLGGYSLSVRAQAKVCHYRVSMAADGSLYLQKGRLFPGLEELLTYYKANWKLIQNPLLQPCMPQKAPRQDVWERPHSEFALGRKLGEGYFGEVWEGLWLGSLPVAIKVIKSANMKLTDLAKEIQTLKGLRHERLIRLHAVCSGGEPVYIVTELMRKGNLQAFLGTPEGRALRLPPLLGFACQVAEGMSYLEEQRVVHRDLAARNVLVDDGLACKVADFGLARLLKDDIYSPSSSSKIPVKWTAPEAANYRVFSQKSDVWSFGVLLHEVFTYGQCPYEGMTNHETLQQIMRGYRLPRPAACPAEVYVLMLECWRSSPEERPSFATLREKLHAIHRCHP", "method_in_brief": "as §1"}, "[12]": {"molecular_target": "T7, IR(h) (Homo sapiens, UniProt P06213)", "T7 construct": "gene INSR", "method_in_brief": "as §1"}, "[13]": {"molecular_target": "DYRK1A(h) (Homo sapiens, UniProt Q13627)", "method_in_brief": "as §1"}, "[14]": {"molecular_target": "T8, PKCβII(h) (Homo sapiens, UniProt P05771)", "T8 construct": "gene PRKCB; isoform beta II", "T8 sequence (P05771 whole entry, canonical isoform)": "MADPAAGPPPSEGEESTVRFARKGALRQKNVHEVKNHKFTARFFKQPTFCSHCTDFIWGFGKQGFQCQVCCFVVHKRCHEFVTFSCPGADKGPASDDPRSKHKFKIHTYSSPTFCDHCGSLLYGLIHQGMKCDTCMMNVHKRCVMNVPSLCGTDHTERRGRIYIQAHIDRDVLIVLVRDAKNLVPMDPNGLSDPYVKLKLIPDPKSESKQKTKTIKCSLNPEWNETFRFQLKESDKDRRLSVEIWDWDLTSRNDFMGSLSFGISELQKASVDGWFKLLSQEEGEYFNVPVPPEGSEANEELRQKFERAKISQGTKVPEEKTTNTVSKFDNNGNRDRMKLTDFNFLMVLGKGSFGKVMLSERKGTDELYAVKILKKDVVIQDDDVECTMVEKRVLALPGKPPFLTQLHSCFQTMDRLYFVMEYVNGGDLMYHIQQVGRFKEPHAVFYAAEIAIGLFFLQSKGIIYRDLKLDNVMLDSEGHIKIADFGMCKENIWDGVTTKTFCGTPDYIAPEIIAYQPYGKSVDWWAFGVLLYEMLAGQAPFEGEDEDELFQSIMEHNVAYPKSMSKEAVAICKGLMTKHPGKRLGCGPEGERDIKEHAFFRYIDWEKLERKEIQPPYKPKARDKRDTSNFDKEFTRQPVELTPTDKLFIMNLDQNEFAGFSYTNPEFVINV", "method_in_brief": "as §1"}, "[15]": {"molecular_target": "T9, MRCKα(h) (Homo sapiens, UniProt Q5VT25)", "T9 construct": "gene CDC42BPA", "method_in_brief": "as §1"}, "[16]": {"molecular_target": "CDK7/cyclinH/MAT1(h) (Homo sapiens, UniProt P50613)", "method_in_brief": "as §1"}, "[17]": {"molecular_target": "T10, JNK1α1(h) (Homo sapiens, UniProt P45983)", "T10 construct": "gene MAPK8; isoform alpha1", "T10 sequence (P45983 whole entry, canonical isoform)": "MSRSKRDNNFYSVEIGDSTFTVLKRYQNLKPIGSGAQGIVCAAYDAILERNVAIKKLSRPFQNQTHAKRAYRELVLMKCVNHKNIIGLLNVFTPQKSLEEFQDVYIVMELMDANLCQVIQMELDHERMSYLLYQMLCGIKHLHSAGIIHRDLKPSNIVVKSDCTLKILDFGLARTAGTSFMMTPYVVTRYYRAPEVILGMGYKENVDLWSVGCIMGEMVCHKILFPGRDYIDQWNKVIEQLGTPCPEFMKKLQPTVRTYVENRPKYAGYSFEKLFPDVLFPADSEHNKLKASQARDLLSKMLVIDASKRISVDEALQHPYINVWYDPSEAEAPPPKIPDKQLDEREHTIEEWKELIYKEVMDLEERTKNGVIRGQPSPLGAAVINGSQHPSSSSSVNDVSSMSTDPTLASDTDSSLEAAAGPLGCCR", "method_in_brief": "as §1"}, "[18]": {"molecular_target": "Bmx(h) (Homo sapiens, UniProt P51813)", "method_in_brief": "as §1"}, "[19]": {"molecular_target": "T11, PhKγ2(h) (Homo sapiens, UniProt P15735)", "T11 construct": "gene PHKG2", "T11 sequence (P15735 whole entry)": "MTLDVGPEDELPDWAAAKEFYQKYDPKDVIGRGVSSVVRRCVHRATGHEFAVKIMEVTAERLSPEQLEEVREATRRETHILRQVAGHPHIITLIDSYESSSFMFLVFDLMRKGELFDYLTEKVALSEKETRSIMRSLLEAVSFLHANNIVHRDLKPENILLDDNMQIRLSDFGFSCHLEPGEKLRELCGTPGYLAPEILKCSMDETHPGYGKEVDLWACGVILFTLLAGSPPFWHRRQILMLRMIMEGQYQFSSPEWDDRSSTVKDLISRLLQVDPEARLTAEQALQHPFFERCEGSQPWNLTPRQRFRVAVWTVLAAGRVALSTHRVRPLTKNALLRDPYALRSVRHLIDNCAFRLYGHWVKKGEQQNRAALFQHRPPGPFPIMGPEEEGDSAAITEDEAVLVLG", "method_in_brief": "as §1"}, "[20]": {"molecular_target": "EphA4(h) (Homo sapiens, UniProt P54764)", "method_in_brief": "as §1"}, "[21]": {"molecular_target": "T12, Pyk2(h) (Homo sapiens, UniProt Q14289)", "T12 construct": "gene PTK2B", "method_in_brief": "as §1"}, "[22]": {"molecular_target": "T13, Rse(h) (Homo sapiens, UniProt Q06418)", "T13 construct": "gene TYRO3", "method_in_brief": "as §1"}, "[23]": {"molecular_target": "DYRK2(h) (Homo sapiens, UniProt Q92630)", "method_in_brief": "as §1"}},
  "data": [
    {"smiles": "C1=C(c2nc(-c3cnn(C4CCNCC4)c3)cn3cc(-c4ccccc4)nc23)CCOC1", "note": "[YL-939]", "values": [
      {"measurement": "remaining activity at 10 µM", "setting": "[1]", "value": 94, "unit": "%"},
      {"measurement": "remaining activity at 10 µM", "setting": "[2]", "value": 71, "unit": "%"},
      {"measurement": "remaining activity at 10 µM", "setting": "[3]", "value": 85, "unit": "%"},
      {"measurement": "remaining activity at 10 µM", "setting": "[4]", "value": 100, "unit": "%"},
      {"measurement": "remaining activity at 10 µM", "setting": "[5]", "value": 100, "unit": "%"},
      {"measurement": "remaining activity at 10 µM", "setting": "[6]", "value": 54, "unit": "%"},
      {"measurement": "remaining activity at 10 µM", "setting": "[7]", "value": 88, "unit": "%"},
      {"measurement": "remaining activity at 10 µM", "setting": "[8]", "value": 102, "unit": "%"},
      {"measurement": "remaining activity at 10 µM", "setting": "[9]", "value": 94, "unit": "%"},
      {"measurement": "remaining activity at 10 µM", "setting": "[10]", "value": 88, "unit": "%"},
      {"measurement": "remaining activity at 10 µM", "setting": "[11]", "value": 122, "unit": "%"},
      {"measurement": "remaining activity at 10 µM", "setting": "[12]", "value": 114, "unit": "%"},
      {"measurement": "remaining activity at 10 µM", "setting": "[13]", "value": 83, "unit": "%"},
      {"measurement": "remaining activity at 10 µM", "setting": "[14]", "value": 95, "unit": "%"},
      {"measurement": "remaining activity at 10 µM", "setting": "[15]", "value": 92, "unit": "%"},
      {"measurement": "remaining activity at 10 µM", "setting": "[16]", "value": 92, "unit": "%"},
      {"measurement": "remaining activity at 10 µM", "setting": "[17]", "value": 109, "unit": "%"},
      {"measurement": "remaining activity at 10 µM", "setting": "[18]", "value": 87, "unit": "%"},
      {"measurement": "remaining activity at 10 µM", "setting": "[19]", "value": 68, "unit": "%"},
      {"measurement": "remaining activity at 10 µM", "setting": "[20]", "value": 89, "unit": "%"},
      {"measurement": "remaining activity at 10 µM", "setting": "[21]", "value": 108, "unit": "%"},
      {"measurement": "remaining activity at 10 µM", "setting": "[22]", "value": 98, "unit": "%"},
      {"measurement": "remaining activity at 10 µM", "setting": "[23]", "value": 93, "unit": "%"}
    ]}
  ]
}
